Data: patent US11370774B2, “Substituted benzofuran, benzopyrrole, benzothiophene, and structurally related complement inhibitors” (BioCryst Pharmaceuticals, Inc., priority 2018, dated 2022)

What follows are compounds tested against Factor D (Homo sapiens (Human), UniProt P00746) (assay: Factor D esterolytic assay (Z-Lys-SBzl substrate, DTNB, 405 nm)). Conditions: Z-Lys-SBzl 1.29 mM, pH 7.5, 10% DMSO, tested a minimum of three times, read-out: Measured Ki (IC50) Value for Compounds: IC50.
Factor D, sequence (P00746 26-253): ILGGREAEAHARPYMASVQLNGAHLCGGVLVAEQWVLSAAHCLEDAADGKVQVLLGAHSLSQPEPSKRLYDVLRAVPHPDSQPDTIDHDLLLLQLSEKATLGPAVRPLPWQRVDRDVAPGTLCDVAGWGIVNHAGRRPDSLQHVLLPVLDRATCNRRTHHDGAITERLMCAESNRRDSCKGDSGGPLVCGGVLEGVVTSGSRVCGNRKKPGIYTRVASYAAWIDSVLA
Type: biochemical
In short: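 Human Factor D ([…]) with 1.29 mM Z-Lys-SBzl in 100 mM HEPES, 500 mM NaCl, pH 7.5, 10% DMSO; substrate added immediately or after room-temperature preincubation. Released thiol reacted with DTNB, rate followed at 405 nm for 600 sec, 690 nm background subtracted. IC50 from percent inhibition versus uninhibited rate, n≥3.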
For `Cn1ccc2c(-c3ccnc(CN)c3)cc(COc3ccccc3CC(=O)O)cc21` [Compound 133c, 2-(2-((4-(2-(aminomethyl)pyridin-4-yl)-1-methyl-1H-indol-6-yl)methoxy)phenyl)acetic acid], the IC50 was < 1000 nM. `NCc1cccc(-c2cc(COc3cc(-c4ccc(C(=O)O)s4)ccc3CC(=O)O)cc3ccoc23)c1` [Compound 325a, 5-(3-((7-(3-(aminomethyl)phenyl)benzofuran-5-yl)methoxy)-4-(carboxymethyl)phenyl)thiophene-2-carboxylic acid] was tested, and the IC50 was < 1000 nM. `Cc1cc(CC(=O)O)c(OCc2cc(-c3ccnc(CN)c3F)c3occc3c2)cc1C` [Compound 430c, 2-(2-((7-(2-(aminomethyl)-3-fluoropyridin-4-yl)benzofuran-5-yl)methoxy)-4,5-dimethylphenyl)acetic acid] was tested, and the IC50 was < 1000 nM. For `Cc1cc(CC(=O)O)c(OCc2cc(-c3cccc(CN)c3)c3occc3c2)cc1C` [Compound 276f, 2-(2-((7-(3-(aminomethyl)phenyl)benzofuran-5-yl)methoxy)-4,5-dimethylphenyl)acetic acid], the IC50 was < 1000 nM. `NCc1cccc(-c2cc(C(=O)N[C@@H]3CCC[C@H]3C(=O)NCc3cccc(Cl)c3F)cc3ccoc23)c1` (relative stereo) [Compound 376e, 7-(3-(aminomethyl)phenyl)-N-((trans)-2-((3-chloro-2-fluorobenzyl)carbamoyl)cyclopentyl)benzofuran-5-carboxamide] was tested, and the IC50 was < 1000 nM. With `NCc1cccc(-c2cc(COc3ccc(F)cc3CC(=O)O)cc3c(C(F)(F)F)coc23)c1` [Compound 500c, 2-(2-((7-(3-(aminomethyl)phenyl)-3-(trifluoromethyl)benzofuran-5-yl)methoxy)-5-fluorophenyl)acetic acid] the IC50 was < 1000 nM. For `CC(C)n1ccc2c(-c3cccc(CN)c3)cc(COc3cc(F)ccc3CC(=O)O)cc21` [Compound 449c, 2-(2-((4-(3-(aminomethyl)phenyl)-1-isopropyl-1H-indol-6-yl)methoxy)-4-fluorophenyl)acetic acid], the IC50 was < 1000 nM. `CCOC(=O)Cc1ccccc1OCc1nc(-c2cccc(CN)c2)nn2cccc12` [Compound 25c, ethyl 2-(2-((2-(3-(aminomethyl)phenyl)pyrrolo[2,1-f][1,2,4]triazin-4-yl)methoxy)phenyl)acetate] showed an IC50 of 1000 to 10000 nM. With `Cn1cc2c(-c3cccc(CN)c3F)cc(COc3ccccc3CC(=O)O)cc2n1` [Compound 129e, 2-(2-((4-(3-(aminomethyl)-2-fluorophenyl)-2-methyl-2H-indazol-6-yl)methoxy)phenyl)acetic acid] the IC50 was < 1000 nM. With `NCc1cccc(-c2cc(COc3ccccc3CC(=O)O)cc3c(N)noc23)c1F` [Compound 245g, 2-(2-((3-amino-7-(3-(aminomethyl)-2-fluorophenyl)benzo[d]isoxazol-5-yl)methoxy)phenyl)acetic acid] the IC50 was < 1000 nM. In the case of `NCc1cc(F)cc(-c2cc(COc3ccccc3CC(=O)O)cc3[nH]ccc23)c1` [Compound 69e, 2-(2-((4-(3-(aminomethyl)-5-fluorophenyl)-1H-indol-6-yl)methoxy)phenyl)acetic acid], the IC50 is reported as < 1000 nM. `NCc1cccc(-c2cc(COc3ccccc3CC(=O)O)nc3[nH]ccc23)c1` [Compound 52a, 2-(2-((4-(3-(aminomethyl)phenyl)-1H-pyrrolo[2,3-b]pyridin-6-yl)methoxy)phenyl)acetic acid] was tested, and the IC50 was < 1000 nM. `NCc1cccc(-c2cc(COc3ccccc3CC(=O)O)cc3cc(C(F)(F)F)oc23)c1` [Compound 199f, 2-(2-((7-(3-(aminomethyl)phenyl)-2-(trifluoromethyl)benzofuran-5-yl)methoxy)phenyl)acetic acid] was tested, and the IC50 was < 1000 nM. Work on `NCc1cccc(-c2cc(NC(=O)[C@@H]3CCCN3CC(=O)O)cc3ccoc23)c1` [Compound 250f, (S)-2-(2-((7-(3-(aminomethyl)phenyl)benzofuran-5-yl)carbamoyl)pyrrolidin-1-yl)acetic acid] yielded an IC50 of 1000 to 10000 nM. For `Cc1cc(NC(=O)c2nc(-c3cccc(CN)c3F)nn3cccc23)n(CC(=O)O)n1` [Compound 54d, 2-(5-(2-(3-(aminomethyl)-2-fluorophenyl)pyrrolo[2,1-f][1,2,4]triazine-4-carboxamido)-3-methyl-1H-pyrazol-1-yl)acetic acid], the IC50 was > 10000 nM. `NCc1cccc(-c2cc(NC(=O)N3CCCC3CC(=O)O)cc3ccoc23)c1` (stereo not drawn) [Compound 407d, 2-(1-((7-(3-(aminomethyl)phenyl)benzofuran-5-yl)carbamoyl)pyrrolidin-2-yl)acetic acid] was tested, and the IC50 was > 10000 nM. With `CC(=O)Nc1ccc(CC(=O)O)c(OCc2cc(-c3cccc(CN)c3)c3oc(C)cc3c2)c1` [Compound 426c, 2-(4-acetamido-2-((7-(3-(aminomethyl)phenyl)-2-methylbenzofuran-5-yl)methoxy)phenyl)acetic acid] the IC50 was < 1000 nM. With `CC(C)c1ccc(CC(=O)O)c(OCc2cc(-c3cccc(CN)c3F)c3occc3c2)c1` [Compound 307f, 2-(2-((7-(3-(aminomethyl)-2-fluorophenyl)benzofuran-5-yl)methoxy)-4-isopropylphenyl)acetic acid] the IC50 was < 1000 nM. `NCc1cc(-c2cc(COc3ccccc3CC(=O)O)cc3c(C(F)(F)F)coc23)ccn1` [Compound 175c, 2-(2-((7-(2-(aminomethyl)pyridin-4-yl)-3-(trifluoromethyl)benzofuran-5-yl)methoxy)phenyl)acetic acid] was tested, and the IC50 was < 1000 nM. With `NCc1cccc(-c2nc(C(=O)Nc3ccccc3CC(=O)O)nc3ccoc23)c1` [Compound 36h, 2-(2-(4-(3-(aminomethyl)phenyl)furo[3,2-d]pyrimidine-2-carboxamido)phenyl)acetic acid] the IC50 was < 1000 nM. In the case of `NCc1cc(F)cc(-c2cc(COc3ccccc3CC(=O)O)cc3ccoc23)c1` [Compound 73c, 2-(2-((7-(3-(aminomethyl)-5-fluorophenyl)benzofuran-5-yl)methoxy)phenyl)acetic acid], the IC50 is reported as < 1000 nM. With `COCc1cc2cc(COc3ccccc3CC(=O)O)cc(-c3ccnc(CN)c3F)c2o1` [Compound 120c, 2-(2-((7-(2-(aminomethyl)-3-fluoropyridin-4-yl)-2-(methoxymethyl)benzofuran-5-yl)methoxy)phenyl)acetic acid] the IC50 was < 1000 nM. With `CC(N)c1cccc(-c2cc(COc3ccccc3CC(=O)O)cc3ccoc23)n1` (stereo not drawn) [Compound 100c, 2-(2-((7-(6-(1-aminoethyl)pyridin-2-yl)benzofuran-5-yl)methoxy)phenyl)acetic acid] the IC50 was 1000 to 10000 nM. `NCc1cccc(-c2cc(C(=O)Nc3ccccc3CC(=O)O)cc3[nH]ccc23)c1` [Compound 9d, 2-(2-(4-(3-(aminomethyl)phenyl)-1H-indole-6-carboxamido)phenyl)acetic acid] was tested, and the IC50 was < 1000 nM. With `NCc1cccc(-c2cc(COc3cc(-c4ccccc4)ccc3CC(=O)O)cc3ccoc23)c1F` [Compound 391f, 2-(3-((7-(3-(aminomethyl)-2-fluorophenyl)benzofuran-5-yl)methoxy)-[1,1′-biphenyl]-4-yl)acetic acid] the IC50 was < 1000 nM. With `Nc1noc2c(-c3cc(COc4ccccc4CC(=O)O)cc4ccoc34)cccc12` [Compound 180e, 2-(2-((7-(3-aminobenzo[d]isoxazol-7-yl)benzofuran-5-yl)methoxy)phenyl)acetic acid] the IC50 was < 1000 nM. `NCc1ccc(-c2cc(COc3ccccc3CC(=O)O)cc3ccoc23)s1` [Compound 206c, 2-(2-((7-(5-(aminomethyl)thiophen-2-yl)benzofuran-5-yl)methoxy)phenyl)acetic acid] was tested, and the IC50 was < 1000 nM. `Nc1cccc(-c2cc(COc3ccccc3CC(=O)O)cc3ccoc23)c1` [Compound 184c, 2-(2-((7-(3-aminophenyl)benzofuran-5-yl)methoxy)phenyl)acetic acid] was tested, and the IC50 was 1000 to 10000 nM. In the case of `NCc1cc(F)cc(-c2nc(C(=O)Nc3ccccc3CC(=O)O)c3cccn3n2)c1` [Compound 21d, 2-(2-(2-(3-(aminomethyl)-5-fluorophenyl)pyrrolo[2,1-f][1,2,4]triazine-4-carboxamido)phenyl)acetic acid], the IC50 is reported as < 1000 nM. `NCc1cccc(-c2cc(COc3ccccc3CC(=O)O)cc3oc(Cl)cc23)c1` [Compound 225h, 2-(2-((4-(3-(aminomethyl)phenyl)-2-chlorobenzofuran-6-yl)methoxy)phenyl)acetic acid] was tested, and the IC50 was < 1000 nM. For `NCc1cccc(-c2cc(COc3cccc(C(F)(F)F)c3CC(=O)O)cc3ccoc23)c1` [Compound 282f, 2-(2-((7-(3-(aminomethyl)phenyl)benzofuran-5-yl)methoxy)-6-(trifluoromethyl)phenyl)acetic acid], the IC50 was < 1000 nM. For `NCc1nccc(-c2cc(COc3ccccc3CC(=O)O)cc3c2ccn3CC2CC2)c1F` [Compound 170b, 2-(2-((4-(2-(aminomethyl)-3-fluoropyridin-4-yl)-1-(cyclopropylmethyl)-1H-indol-6-yl)methoxy)phenyl)acetic acid], the IC50 was < 1000 nM. In the case of `NCc1cc(-c2cc(COc3ccccc3CC(=O)O)cc3c2ccn3S(=O)(=O)C2CC2)ccn1` [Compound 232c, 2-(2-((4-(2-(aminomethyl)pyridin-4-yl)-1-(cyclopropylsulfonyl)-1H-indol-6-yl)methoxy)phenyl)acetic acid], the IC50 is reported as < 1000 nM. For `NCc1cccc(-c2cc(COc3ccccc3CC(=O)O)cc3c2ccn3C(F)(F)F)c1` [Compound 517d, 2-(2-((4-(3-(aminomethyl)phenyl)-1-(trifluoromethyl)-1H-indol-6-yl)methoxy)phenyl)acetic acid], the IC50 was < 1000 nM. In the case of `COCc1cc2cc(COc3cc(OC)ccc3CC(=O)O)cc(-c3ccnc(CN)c3F)c2o1` [Compound 471d, 2-(2-((7-(2-(aminomethyl)-3-fluoropyridin-4-yl)-2-(methoxymethyl)benzofuran-5-yl)methoxy)-4-methoxyphenyl)acetic acid], the IC50 is reported as < 1000 nM. `NCc1ccccc1-c1cc(COc2ccccc2CC(=O)O)cc2ccoc12` [Compound 243d, 2-(2-((7-(2-(aminomethyl)phenyl)benzofuran-5-yl)methoxy)phenyl)acetic acid] was tested, and the IC50 was > 10000 nM.
